Source: US20240239801A1, “PYRIMIDO[5,4,D]PYRIMIDINE COMPOUNDS, COMPOSITIONS COMPRISING THEM AND USES THEREOF” (Université de Montréal, priority 2021, published 2024)

Legend:
Assay in all cases: Phospho-ERK inhibition, AlphaLISA SureFire Ultra p-ERK 1/2
Assay type in all cases: cell-based, human
SK-MEL30 pERK = details: Table D-1; for SK-MEL30 pERK, value in parentheses, % inhibition: % Ymin of pERK IC50 curve
How it was run: (§1)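 Cells plated in RPMI-1640 with 5% FBS, held overnight, then exposed 1 h to ten-point compound dilutions (top 30 or 10 μM down to 0.33 nM; 0.5% DMSO). Lysates read for p-ERK1/2 (Thr202/Tyr204) by AlphaLISA; % inhibition relative to DMSO after subtracting a 1 μM trametinib background; IC50 from four-parameter fit.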

Mewo pERK = details: Table D-2; for Mewo pERK, value in parentheses, % inhibition: % Ymin of pERK IC50 curve
How it was run: as §1

NCI-H358 pERK = details: Table D-2; for NCI-H358 pERK, value in parentheses, % inhibition: % Ymin of pERK IC50 curve
How it was run: as §1

NCIH2087 pERK = details: Table D-2
How it was run: as §1

SW620 pERK = details: Table D-2; for pERK IC50 curve bottom (Ymin), %: % Ymin of pERK IC50 curve
How it was run: as §1

IPC298 pERK = details: Table D-1; for IPC298 pERK, value in parentheses, % inhibition: % Ymin of pERK IC50 curve
How it was run: as §1

Calu6 pERK = details: Table D-2; for Calu6 pERK, value in parentheses, % inhibition: % Ymin of pERK IC50 curve
How it was run: as §1

Lovo pERK = details: Table D-2; for pERK curve Ymin (%): % Ymin of pERK IC50 curve
How it was run: as §1

HepG2 pERK = details: Table D-1; for HepG2 pERK, value in parentheses, % inhibition: % Ymin of pERK IC50 curve
How it was run: as §1

NCIH1755 pERK = details: Table D-2; for Ymin of pERK inhibition curve (%): % Ymin of pERK IC50 curve
How it was run: as §1

NCI-H2122 pERK = details: Table D-2; for NCI-H2122 pERK, value in parentheses, % inhibition: % Ymin of pERK IC50 curve
How it was run: as §1

Row | SMILES | SK-MEL30 pERK, value in parentheses, % inhibition (SK-MEL30 pERK) | Mewo pERK, value in parentheses, % inhibition (Mewo pERK) | NCI-H358 pERK, value in parentheses, % inhibition (NCI-H358 pERK) | IPC298 pERK, value in parentheses, % inhibition (IPC298 pERK) | Calu6 pERK, value in parentheses, % inhibition (Calu6 pERK) | pERK curve Ymin (%) (Lovo pERK) | HepG2 pERK, value in parentheses, % inhibition (HepG2 pERK) | Ymin of pERK inhibition curve (%) (NCIH1755 pERK) | NCI-H2122 pERK, value in parentheses, % inhibition (NCI-H2122 pERK) | IC50 (SK-MEL30 pERK) | IC50 (Mewo pERK) | IC50 (NCI-H358 pERK) | IC50 (NCIH2087 pERK) | Ymin of pERK IC50 curve (%) (NCIH2087 pERK) | IC50 (SW620 pERK) | pERK IC50 curve bottom (Ymin), % (SW620 pERK) | IC50 (IPC298 pERK) | IC50 (Calu6 pERK) | IC50 (Lovo pERK) | IC50 (HepG2 pERK) | also measured
1 | Cc1ccc2c(Nc3cccc(Cl)c3F)nccc2c1NC(=O)c1csc2c(N)ncnc12 [Belvarafenib, reference compound] | (−45) % | (−116) % | (−122) % | (−63) % | (−39) % | (−12) % | (−36) % | (−79) % | (−9) % | – | – | – | – | – | – | – | – | – | – | – | IC50 (SK-MEL30 pERK; Homo sapiens, SK-MEL-30): < 30 nM; IC50 (Mewo pERK; Homo sapiens, MeWo): 30 to 300 nM; IC50 (NCI-H358 pERK; Homo sapiens, NCI-H358): 30 to 300 nM; IC50 (NCIH2087 pERK; Homo sapiens, NCI-H2087): < 30 nM; IC50 (SW620 pERK; Homo sapiens, SW-620): 30 to 300 nM; IC50 (IPC298 pERK; Homo sapiens, IPC-298): 30 to 300 nM; IC50 (Calu6 pERK; Homo sapiens, Calu-6): 30 to 300 nM; IC50 (Lovo pERK; Homo sapiens, LoVo): < 30 nM; IC50 (HepG2 pERK; Homo sapiens, HepG2): 30 to 300 nM; IC50 (NCIH1755 pERK; Homo sapiens, NCI-H1755): 30 to 300 nM; IC50 (NCI-H2122 pERK; Homo sapiens, NCI-H2122): 30 to 300 nM
2 | Cc1c(F)cccc1S(=O)(=O)Nc1ccc(F)c(Nc2ncnc3cnc(-n4cc(C(=O)N(C)Cc5ccncc5)c5ccccc54)nc23)c1F [Example 98] | (10) % | (9) % | (20) % | (13) % | (5) % | (27) % | (27) % | (9) % | (26) % | < 30 nM | 30 to 300 nM | 30 to 300 nM | < 30 nM | (6) % | 30 to 300 nM | (36) % | 30 to 300 nM | 30 to 300 nM | 30 to 300 nM | < 30 nM | IC50 (NCIH1755 pERK): < 30 nM; IC50 (NCI-H2122 pERK): 30 to 300 nM
3 | COc1ccc(S(=O)(=O)Nc2ccc(F)c(Nc3ncnc4cnc(-n5cnc6c(N)cccc65)nc34)c2F)c(C)c1Cl [Example 112] | (6) % | (12) % | (−8) % | (1) % | (1) % | (−1) % | (−10) % | (12) % | (−15) % | < 30 nM | < 30 nM | 30 to 300 nM | < 30 nM | (−7) % | 30 to 300 nM | (11) % | 30 to 300 nM | 30 to 300 nM | 30 to 300 nM | 30 to 300 nM | IC50 (NCIH1755 pERK): < 30 nM; IC50 (NCI-H2122 pERK): 30 to 300 nM
4 | Cc1c(F)cccc1S(=O)(=O)Nc1ccc(F)c(Nc2ncnc3cnc(-n4cnc5c(-c6cccnc6)cccc54)nc23)c1F [Example 114] | (−9) % | (−12) % | (−4) % | (1) % | (8) % | (4) % | (14) % | (−5) % | (0) % | – | – | – | – | (2) % | – | (−13) % | – | – | – | – | IC50 (SK-MEL30 pERK; Homo sapiens, SK-MEL-30): 30 to 300 nM; IC50 (Mewo pERK; Homo sapiens, MeWo): 30 to 300 nM; IC50 (NCI-H358 pERK; Homo sapiens, NCI-H358): > 300 nM; IC50 (NCIH2087 pERK; Homo sapiens, NCI-H2087): 30 to 300 nM; IC50 (SW620 pERK; Homo sapiens, SW-620): > 300 nM; IC50 (IPC298 pERK; Homo sapiens, IPC-298): 30 to 300 nM; IC50 (Calu6 pERK; Homo sapiens, Calu-6): 30 to 300 nM; IC50 (Lovo pERK; Homo sapiens, LoVo): < 30 nM; IC50 (HepG2 pERK; Homo sapiens, HepG2): 30 to 300 nM; IC50 (NCIH1755 pERK; Homo sapiens, NCI-H1755): 30 to 300 nM; IC50 (NCI-H2122 pERK; Homo sapiens, NCI-H2122): 30 to 300 nM
5 | O=S(=O)(Nc1ccc(F)c(Nc2ncnc3cnc(-n4cnc5c(N6CCC7(CCCO7)CC6)cccc54)nc23)c1F)c1cccc(Cl)c1Cl [Example 129] | (16) % | (−5) % | (−3) % | (17) % | (−1) % | (−2) % | (−2) % | (−2) % | (−14) % | < 30 nM | 30 to 300 nM | 30 to 300 nM | < 30 nM | (3) % | > 300 nM | (−7) % | 30 to 300 nM | 30 to 300 nM | 30 to 300 nM | 30 to 300 nM | IC50 (NCIH1755 pERK): < 30 nM; IC50 (NCI-H2122 pERK): > 300 nM
